The values below are quoted from earlier work in patent publication US20060251720A1, “Localized controlled absorption of statins in the gastrointestinal tract for achieving high blood levels of statins” (priority 2004, published 2006).

In series [1] the target is T1, HMG-CoA reductase (Homo sapiens, UniProt P04035).
T1 sequence (P04035 1-888): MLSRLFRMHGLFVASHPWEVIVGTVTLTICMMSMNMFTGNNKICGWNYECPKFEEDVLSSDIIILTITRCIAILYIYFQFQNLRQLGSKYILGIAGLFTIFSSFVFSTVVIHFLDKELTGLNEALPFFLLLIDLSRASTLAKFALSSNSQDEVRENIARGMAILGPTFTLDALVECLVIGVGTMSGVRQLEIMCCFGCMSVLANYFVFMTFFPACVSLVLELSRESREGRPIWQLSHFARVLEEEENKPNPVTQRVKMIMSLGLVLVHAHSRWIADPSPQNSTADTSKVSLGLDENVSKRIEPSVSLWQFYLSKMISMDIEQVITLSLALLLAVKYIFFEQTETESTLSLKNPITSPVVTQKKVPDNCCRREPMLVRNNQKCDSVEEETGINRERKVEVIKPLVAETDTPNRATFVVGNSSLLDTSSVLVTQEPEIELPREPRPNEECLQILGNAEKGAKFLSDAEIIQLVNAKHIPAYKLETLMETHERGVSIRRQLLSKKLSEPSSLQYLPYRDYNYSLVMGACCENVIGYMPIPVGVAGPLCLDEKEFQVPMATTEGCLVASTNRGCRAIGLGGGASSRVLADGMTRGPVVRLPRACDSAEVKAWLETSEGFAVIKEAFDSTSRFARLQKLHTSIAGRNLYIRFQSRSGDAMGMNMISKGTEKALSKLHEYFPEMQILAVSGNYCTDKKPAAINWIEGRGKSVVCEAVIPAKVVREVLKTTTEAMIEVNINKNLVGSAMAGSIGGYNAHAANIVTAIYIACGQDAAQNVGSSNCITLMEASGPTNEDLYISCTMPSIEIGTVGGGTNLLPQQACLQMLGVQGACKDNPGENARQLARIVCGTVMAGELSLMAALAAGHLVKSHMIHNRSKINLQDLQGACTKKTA
The note with it: relative to the beta-hydroxy acid form taken as the drug.

The test system of series [2] is plasma proteins, primarily albumin.

As to `CCC(C)(C)C(=O)OC1CC(C)(O)C=C2C=CC(C)C(CCC3CC(O)CC(=O)O3)C21` (stereo not drawn) [6-beta-hydroxy simvastatin], the “HMG-CoA reductase activity retained” value in series [1] is listed as ~50%.
For `CCC(C)(C)C(=O)O[C@H]1C[C@@H](C)C=C2C=C[C@H](C)[C@H](CC[C@@H]3C[C@@H](O)CC(=O)O3)[C@H]21` [simvastatin], in series [2], the “bound to plasma proteins, primarily to albumin” value is “more than 95%”.
`CCC(C)(C)C(=O)O[C@H]1C[C@@H](CO)C=C2C=C[C@H](C)[C@H](CC[C@@H]3C[C@@H](O)CC(=O)O3)[C@H]21` [6-beta-hydroxymethyl simvastatin]: the “HMG-CoA reductase activity retained” value in series [1] is recorded as “approximately 40%”.
